# Laboratory results published in PMC8632988, “Inhibition of SYK and cSrc kinases can protect bone and cartilage in preclinical models of osteoarthritis and rheumatoid arthritis” (Scientific Reports, 2021).
# Several values for one entry are separate records, joined by “and”; a condition that tells them apart may be missing. Equal values may be shown once.
# System: Lewis rats, CIA model
# Test: Collagen-induced semi-established arthritis model in rats
# Assay type: in vivo, rat
# Conditions: for Bone Resorption score, Mean / Cartilage Damage score, Mean / Inflammation score, Mean / Pannus score, Mean / Periosteal Bone Formation score, Mean / Periosteal Naïve Bone Width Actual, Mean / Summed Histopathology Scores, Mean: group mean; for Bone Resorption score (0=normal to 5=severe) / Cartilage Damage score (0=normal to 5=severe) / Inflammation score (0=normal to 5=severe) / Pannus score (0=normal to 5=severe) / Periosteal Bone Formation score (0=normal to 5=severe) / Periosteal Naïve Bone Width 16x Measure / Periosteal Naïve Bone Width Actual / Summed Histopathology Scores: individual joint (animal, R/L); for Bone Resorption score, % inhibition / Cartilage Damage score, % inhibition / Inflammation score, % inhibition / Pannus score, % inhibition / Periosteal Bone Formation score, % inhibition / Periosteal Naïve Bone Width, % inhibition / Summed Histopathology Scores, % inhibition: vs vehicle
# Experimental: Rat CIA model was performed was performed at Pharmenterprises, Russia and approved by Ethics Committee of Pharmenterprises. Female Lewis rats with body weight of 164–183 g (Charles River Laboratories, Inc., Wilmington, MA) were injected with porcine type II collagen (Chondrex) emulsified with Freund’s Incomplete Adjuvant (Sigma Aldrich) at two sites at the base of the tail according to standard protocol. On day 7, the rats were boosted with a second subcutaneous injection. On day 6 of the study, rats were randomized by body weight into six groups: a control group of four, and five treatment groups of eight. […] Disease progression was monitored via daily ankle thickness measurements. At study termination on day 16 rats were anesthetized with Isoflurane, bled by vacutainer through the descending aorta to exsanguinate and then euthanized for tissue collection. Hind paws were transected at the level of the medial and lateral malleolus, weighed, and collected for microscopy.
# […]
# [1] = ankle, day 16, MT-SYK-03 103 mg/kg PO BID + MTX Veh PO QD
# [2] = ankle, day 16, MT-SYK-03 103 mg/kg PO BID + MTX Veh PO QD, 103 mg/kg
# [3] = ankle, day 16, MT-SYK-03 207 mg/kg PO BID
# [4] = ankle, day 16, MT-SYK-03 207 mg/kg PO BID, 207 mg/kg
# [5] = knee, day 16, MT-SYK-03 103 mg/kg PO BID + MTX Veh PO QD
smiles,measurement,setting,value
COc1cc(Nc2ncnc(Nc3cc4c(cn3)NC(=O)C(C)(C)O4)n2)cc(OC)c1OC [MT-SYK-03],"Bone Resorption score, Mean",[1],1.50
same,"Cartilage Damage score, Mean",[1],2.09
same,"Inflammation score, Mean",[1],4.44
same,"Pannus score, Mean",[1],1.50
same,"Periosteal Bone Formation score, Mean",[1],1.19
same,"Periosteal Naïve Bone Width Actual, Mean",[1],200.81 μm
same,"Summed Histopathology Scores, Mean",[1],10.72
same,Bone Resorption score (0=normal to 5=severe),[2],2 and 0.5 and 1
same,Cartilage Damage score (0=normal to 5=severe),[2],3 and 0.5 and 2 and 1
same,Inflammation score (0=normal to 5=severe),[2],5 and 2 and 4 and 3
same,Pannus score (0=normal to 5=severe),[2],2 and 0.5 and 1
same,Periosteal Bone Formation score (0=normal to 5=severe),[2],2 and 0 and 1 and 0.5
same,Periosteal Naïve Bone Width 16x Measure,[2],5 and 0 and 3 and 2 and 1 and 4
same,Periosteal Naïve Bone Width Actual,[2],315 μm and 0 μm and 189 μm and 126 μm and 63 μm and 252 μm
same,Summed Histopathology Scores,[2],14 and 3.5 and 12 and 13 and 10 and 6.5 and 7.5 and 8.5
same,"Bone Resorption score, % inhibition",[1],−2%
same,"Cartilage Damage score, % inhibition",[1],13%
same,"Inflammation score, % inhibition",[1],1%
same,"Pannus score, % inhibition",[1],-2%
same,"Periosteal Bone Formation score, % inhibition",[1],7%
same,"Periosteal Naïve Bone Width, % inhibition",[1],11%
same,"Summed Histopathology Scores, % inhibition",[1],4%
same,"Bone Resorption score, Mean",[3],1.06
same,"Cartilage Damage score, Mean",[3],1.78
same,"Inflammation score, Mean",[3],3.84
same,"Pannus score, Mean",[3],1.06
same,"Periosteal Bone Formation score, Mean",[3],0.69
same,"Periosteal Naïve Bone Width Actual, Mean",[3],129.94 μm
same,"Summed Histopathology Scores, Mean",[3],8.44
same,Bone Resorption score (0=normal to 5=severe),[4],1 and 2 and 0 and 0.5
same,Cartilage Damage score (0=normal to 5=severe),[4],2 and 3 and 0.5 and 1
same,Inflammation score (0=normal to 5=severe),[4],4 and 5 and 0.5 and 1 and 2 and 3
same,Pannus score (0=normal to 5=severe),[4],1 and 2 and 0 and 0.5
same,Periosteal Bone Formation score (0=normal to 5=severe),[4],0.5 and 1 and 0 and 2
same,Periosteal Naïve Bone Width 16x Measure,[4],1 and 2 and 3 and 4 and 0 and 5
same,Periosteal Naïve Bone Width Actual,[4],63 μm and 126 μm and 189 μm and 252 μm and 0 μm and 315 μm
same,Summed Histopathology Scores,[4],8.5 and 12.5 and 13 and 12 and 10 and 1 and 1.5 and 3.5 and 4 and 14 and 6.5
same,"Periosteal Naïve Bone Width, ANOVA to Vehicle","ankle, day 16, MT-SYK-03 207 mg/kg PO BID, p value",p < 0.05
same,"Bone Resorption score, % inhibition",[3],28%
same,"Cartilage Damage score, % inhibition",[3],26%
same,"Inflammation score, % inhibition",[3],15%
same,"Pannus score, % inhibition",[3],28%
same,"Periosteal Bone Formation score, % inhibition",[3],46%
same,"Periosteal Naïve Bone Width, % inhibition",[3],42%
same,"Summed Histopathology Scores, % inhibition",[3],24%
same,"Bone Resorption score, Mean",[5],0.66
same,"Cartilage Damage score, Mean",[5],1.03
same,"Inflammation score, Mean",[5],2.78
same,"Pannus score, Mean",[5],0.72
